Compound: N#Cc1cccc([N+](=O)[O-])c1
- solubility (mole fraction) (in acetic acid, 293.15 K): 0.0354
- solubility (mole fraction) (in acetic acid, 298.15 K): 0.04
- solubility (mole fraction) (in acetic acid, 303.15 K): 0.0459
- solubility (mole fraction) (in acetic acid, 308.15 K): 0.0525
- solubility (mole fraction) (in acetic acid, 313.15 K): 0.0608
- solubility (mole fraction) (in acetic acid, 318.15 K): 0.0713
- solubility (mole fraction) (in acetone, 278.15 K): 0.0789
- solubility (mole fraction) (in acetone, 283.15 K): 0.0905
- solubility (mole fraction) (in acetone, 288.15 K): 0.106
- solubility (mole fraction) (in acetone, 293.15 K): 0.123
- solubility (mole fraction) (in acetone, 298.15 K): 0.142
- solubility (mole fraction) (in acetone, 303.15 K): 0.164
- solubility (mole fraction) (in acetone, 308.15 K): 0.187
- solubility (mole fraction) (in acetone, 313.15 K): 0.213
- solubility (mole fraction) (in acetone, 318.15 K): 0.242
- solubility (mole fraction) (in acetonitrile, 278.15 K): 0.0473
- solubility (mole fraction) (in acetonitrile, 283.15 K): 0.0565
- solubility (mole fraction) (in acetonitrile, 288.15 K): 0.0682
- solubility (mole fraction) (in acetonitrile, 293.15 K): 0.0814
- solubility (mole fraction) (in acetonitrile, 298.15 K): 0.0973
- solubility (mole fraction) (in acetonitrile, 303.15 K): 0.116
- solubility (mole fraction) (in acetonitrile, 308.15 K): 0.138
- solubility (mole fraction) (in acetonitrile, 313.15 K): 0.164
- solubility (mole fraction) (in acetonitrile, 318.15 K): 0.196
- solubility (mole fraction) (in cyclohexane, 283.15 K): 0.000365
- solubility (mole fraction) (in cyclohexane, 288.15 K): 0.000472
- solubility (mole fraction) (in cyclohexane, 293.15 K): 0.000599
- solubility (mole fraction) (in cyclohexane, 298.15 K): 0.000768
- solubility (mole fraction) (in cyclohexane, 303.15 K): 0.00097
- solubility (mole fraction) (in cyclohexane, 308.15 K): 0.00121
- solubility (mole fraction) (in cyclohexane, 313.15 K): 0.00153
- solubility (mole fraction) (in cyclohexane, 318.15 K): 0.00193
- solubility (mole fraction) (in ethanol, 278.15 K): 0.00312
- solubility (mole fraction) (in ethanol, 283.15 K): 0.0038
- solubility (mole fraction) (in ethanol, 288.15 K): 0.00473
- solubility (mole fraction) (in ethanol, 293.15 K): 0.00582
- solubility (mole fraction) (in ethanol, 298.15 K): 0.00715
- solubility (mole fraction) (in ethanol, 303.15 K): 0.00873
- solubility (mole fraction) (in ethanol, 308.15 K): 0.0106
- solubility (mole fraction) (in ethanol, 313.15 K): 0.013
- solubility (mole fraction) (in ethanol, 318.15 K): 0.0159
- solubility (mole fraction) (in ethyl acetate, 278.15 K): 0.0353
- solubility (mole fraction) (in ethyl acetate, 283.15 K): 0.044
- solubility (mole fraction) (in ethyl acetate, 288.15 K): 0.0565
- solubility (mole fraction) (in ethyl acetate, 293.15 K): 0.0706
- solubility (mole fraction) (in ethyl acetate, 298.15 K): 0.0876
- solubility (mole fraction) (in ethyl acetate, 303.15 K): 0.109
- solubility (mole fraction) (in ethyl acetate, 308.15 K): 0.135
- solubility (mole fraction) (in ethyl acetate, 313.15 K): 0.166
- solubility (mole fraction) (in ethyl acetate, 318.15 K): 0.203
- solubility (mole fraction) (in isobutanol, 278.15 K): 0.00162
- solubility (mole fraction) (in isobutanol, 283.15 K): 0.00207
- solubility (mole fraction) (in isobutanol, 288.15 K): 0.00265
- solubility (mole fraction) (in isobutanol, 293.15 K): 0.0033
- solubility (mole fraction) (in isobutanol, 298.15 K): 0.00409
- solubility (mole fraction) (in isobutanol, 303.15 K): 0.00504
- solubility (mole fraction) (in isobutanol, 308.15 K): 0.00624
- solubility (mole fraction) (in isobutanol, 313.15 K): 0.00773
- solubility (mole fraction) (in isobutanol, 318.15 K): 0.00959
- solubility (mole fraction) (in isopropanol, 278.15 K): 0.0017
- solubility (mole fraction) (in isopropanol, 283.15 K): 0.00215
- solubility (mole fraction) (in isopropanol, 288.15 K): 0.00274
- solubility (mole fraction) (in isopropanol, 293.15 K): 0.0035
- solubility (mole fraction) (in isopropanol, 298.15 K): 0.00446
- solubility (mole fraction) (in isopropanol, 303.15 K): 0.00565
- solubility (mole fraction) (in isopropanol, 308.15 K): 0.00711
- solubility (mole fraction) (in isopropanol, 313.15 K): 0.00905
- solubility (mole fraction) (in isopropanol, 318.15 K): 0.0114
- solubility (mole fraction) (in methanol, 278.15 K): 0.0041
- solubility (mole fraction) (in methanol, 283.15 K): 0.00501
- solubility (mole fraction) (in methanol, 288.15 K): 0.00622
- solubility (mole fraction) (in methanol, 293.15 K): 0.0076
- solubility (mole fraction) (in methanol, 298.15 K): 0.00926
- solubility (mole fraction) (in methanol, 303.15 K): 0.0112
- solubility (mole fraction) (in methanol, 308.15 K): 0.0134
- solubility (mole fraction) (in methanol, 313.15 K): 0.0162
- solubility (mole fraction) (in methanol, 318.15 K): 0.0195
- solubility (mole fraction) (in n-butanol, 278.15 K): 0.00233
- solubility (mole fraction) (in n-butanol, 283.15 K): 0.00286
- solubility (mole fraction) (in n-butanol, 288.15 K): 0.00349
- solubility (mole fraction) (in n-butanol, 293.15 K): 0.00428
- solubility (mole fraction) (in n-butanol, 298.15 K): 0.00538
- solubility (mole fraction) (in n-butanol, 303.15 K): 0.00683
- solubility (mole fraction) (in n-butanol, 308.15 K): 0.00848
- solubility (mole fraction) (in n-butanol, 313.15 K): 0.0104
- solubility (mole fraction) (in n-butanol, 318.15 K): 0.0129
- solubility (mole fraction) (in n-propanol, 278.15 K): 0.0025
- solubility (mole fraction) (in n-propanol, 283.15 K): 0.00308
- solubility (mole fraction) (in n-propanol, 288.15 K): 0.0038
- solubility (mole fraction) (in n-propanol, 293.15 K): 0.00475
- solubility (mole fraction) (in n-propanol, 298.15 K): 0.00592
- solubility (mole fraction) (in n-propanol, 303.15 K): 0.0073
- solubility (mole fraction) (in n-propanol, 308.15 K): 0.00897
- solubility (mole fraction) (in n-propanol, 313.15 K): 0.0111
- solubility (mole fraction) (in n-propanol, 318.15 K): 0.0135
- solubility (mole fraction) (in toluene, 278.15 K): 0.0259
- solubility (mole fraction) (in toluene, 283.15 K): 0.0304
- solubility (mole fraction) (in toluene, 288.15 K): 0.0374
- solubility (mole fraction) (in toluene, 293.15 K): 0.0458
- solubility (mole fraction) (in toluene, 298.15 K): 0.0557
- solubility (mole fraction) (in toluene, 303.15 K): 0.067
- solubility (mole fraction) (in toluene, 308.15 K): 0.0813
- solubility (mole fraction) (in toluene, 313.15 K): 0.0982
- solubility (mole fraction) (in toluene, 318.15 K): 0.119

Source: BigSolDB 2.1
